Source: patent US20120135089A1, “E3 LIGASE INHIBITORS” (priority 2009, published 2012)

Tests used:
[1] = molecular target: T1, full-length Flag-Mdm2 (Homo sapiens, UniProt Q00987); test: in vitro ubiquitination assay, full-length Flag-Mdm2; type: biochemical
T1 construct: 100 ng of full-length Flag-Mdm2; made in house; host or cells: Sf9 insect cells (baculovirus; virus a gift from S. Grossman)
Description: These assays were performed with 100 ng of full-length Flag-Mdm2 or 200 ng of Flag-Mdm2/HA-MdmX complexes (100 ng of each protein as each are present in a 1:1 ratio, when purified), ^32P-labeled ubiquitin, UbCH5c, and E1. Following a 30-minute incubation at 37° C., reactions were terminated and resolved on a SDS-PAGE gel followed by autoradiography. PC indicates positive control, and NC indicates negative control with UbCH5C eliminated from the reaction. The gels were quantified by phosphoimaging using ImageQuant software (GE Healthcare Bio-Sciences Corp., Piscataway, N.J.). […] Reactions were performed as in FIG. 11A except 500 ng GST-Mdm2 (residues 400-491) and GST-MdmX (residues 400-490) were used for ubiquitin polymerization. […]
Full-length Mdm2 in vitro ubiquitination reactions were performed in 15 μl reaction mixtures containing 50 mM TrisHC1 pH 7.5, 5 mM MgCl2, 2 mM NaF, 2 mM ATP, 0.6 mM DTT, 50 ng E1 (Boston Biochem, Cat. No. E-305), 1 μg PK-ubiquitin, 50 ng His-UbCH5C, and 100 ng Flag-Mdm2. […] The products were resolved by SDS-PAGE and analyzed by Western blot with anti-p53, anti-Mdm2 SMP14, 2A10, 3G5 mix, or anti-MdmX antibodies. […]
Referring now to FIG. 28b, as shown, Mdm2 in vitro ubiquitination is not inhibited by MEL17 treatment. […] Samples were analyzed by Western blotting with anti-Mdm2 antibodies. […]

[2] = system: Mdm2; test: Western blot of Mdm2 in MEFs; type: cell-based, mouse; conditions: 5 μg/ml (14 μM), 6 hours
Description: MEFs were treated with 5 μg/ml (14 μM) of MEL23 for 6 hours. Cells were lysed and analyzed by Western blotting using anti-Mdm2 and anti-eIF4E antibodies. NT indicates a no treatment control.
Cells were seeded and treated with the indicated compound(s). Cells were lysed after each time point in a buffer of 50 mM TrisHCl pH 7.5, 200 mM NaCl, 0.5% NP-40, and 1 complete mini EDTA-free protease inhibitor cocktail tablet per 10 mL of buffer (Roche, Cat. No. 8360170). Protein content was quantified using a Biorad protein assay reagent (Bio-Rad Laboratories, Hercules, Calif., Cat. No. 500-0006). SDS sample buffer was added to the samples, and the mixture was boiled for 5 minutes. Equal amounts of protein were resolved on a 1D SDS-PAGE gel. Following separation proteins were transferred to nitrocellulose membrane, blocked with 5% milk, and then incubated with primary antibody overnight at 4° C. The membrane was incubated with secondary-HRP antibody for 45 minutes at room temperature and developed with SuperSignal West Pico Substrate (Pierce, Rockford, Ill., Cat. No. 34080).

[3] = system: wild-type, p53−/− and p53−/−; mdm2−/− MEFs; test: Alamar Blue viability assay, mouse embryonic fibroblasts; type: cell-based; conditions: 48 hours
Description: (§1) RKO and RKO-E6 cells were seeded in 384-well plates and treated with a dilution series of MEL23 for 48 hours as indicated. Alamar Blue was added for 16 hours and fluorescence determined on a Victor3 Plate Reader. The median percent inhibition of five replicates was determined and normalized to a no treatment control. One standard deviation is shown. […] Cells were seeded in 384-well plates and treated with a dilution series of MEL23 for 48 hours at the indicated concentrations. Alamar Blue was added for 16 hours and fluorescence determined on a Victor3 Plate Reader. The median percent inhibition of five replicates was determined and normalized to a no treatment control. One standard deviation is shown.
(§2) Cells were seeded in 384-well black clear-bottom plates (Corning Inc., Corning, N.Y., Cat. No. 07-200-655). Cells were then treated with the indicated concentration of compound. Plates were incubated for 48 hours at 37° C. Alamar Blue (Invitrogen, Cat. No. DAL1100) was added to each well to a final concentration of 10% and incubated at 37° C. for 16 hours. Fluorescence intensity was determined using the Victor3 Plate Reader (PerkinElmer). Median percent survival or growth inhibition was calculated and normalized to a no treatment control.

[4] = system: RKO and RKO-E6 cells; test: Alamar Blue viability assay, RKO and RKO-E6 cells; type: cell-based, human; conditions: 48 hours, dilution series
Description: as §1, §2

[5] = molecular target: T2, Mdm2 RING-MdmX RING hetero-complex (Homo sapiens, UniProt O15151+Q00987); test: in vitro ubiquitination assay, Mdm2 RING-MdmX RING; type: biochemical
T2 construct: 500 ng GST-Mdm2 (residues 400-491); GST-MdmX (residues 410-490); made in house
T2 sequence (Q00987 400-491): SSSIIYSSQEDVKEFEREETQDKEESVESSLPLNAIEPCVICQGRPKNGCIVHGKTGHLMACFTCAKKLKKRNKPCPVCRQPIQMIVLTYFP
T2 sequence (O15151 410-490): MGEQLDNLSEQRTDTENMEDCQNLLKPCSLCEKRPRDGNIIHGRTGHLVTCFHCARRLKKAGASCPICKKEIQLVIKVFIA
Description: These assays were performed with 100 ng of full-length Flag-Mdm2 or 200 ng of Flag-Mdm2/HA-MdmX complexes (100 ng of each protein as each are present in a 1:1 ratio, when purified), ^32P-labeled ubiquitin, UbCH5c, and E1. Following a 30-minute incubation at 37° C., reactions were terminated and resolved on a SDS-PAGE gel followed by autoradiography. PC indicates positive control, and NC indicates negative control with UbCH5C eliminated from the reaction. The gels were quantified by phosphoimaging using ImageQuant software (GE Healthcare Bio-Sciences Corp., Piscataway, N.J.). […] Reactions were performed as in FIG. 11A except 500 ng GST-Mdm2 (residues 400-491) and GST-MdmX (residues 400-490) were used for ubiquitin polymerization. […] Reactions were performed as in FIG. 11A except with 3 μg of the Roc1/Cul1 ligase complex. Ubiquitination activity of the complex was tested in the presence of increasing concentrations of MEL23 and MEL24.
Radiolabeled in vitro ubiquitination assays were carried out in 30 μl reaction mixtures with ^32P-labeled ubiquitin. 500 ng GST-Mdm2 (residues 400-491) and GST-MdmX (residues 410-490) were used for the RING-RING reactions. The products of the reaction were resolved on a SDS-PAGE gel and visualized by autoradiography.

T1 sequence (Q00987 whole entry): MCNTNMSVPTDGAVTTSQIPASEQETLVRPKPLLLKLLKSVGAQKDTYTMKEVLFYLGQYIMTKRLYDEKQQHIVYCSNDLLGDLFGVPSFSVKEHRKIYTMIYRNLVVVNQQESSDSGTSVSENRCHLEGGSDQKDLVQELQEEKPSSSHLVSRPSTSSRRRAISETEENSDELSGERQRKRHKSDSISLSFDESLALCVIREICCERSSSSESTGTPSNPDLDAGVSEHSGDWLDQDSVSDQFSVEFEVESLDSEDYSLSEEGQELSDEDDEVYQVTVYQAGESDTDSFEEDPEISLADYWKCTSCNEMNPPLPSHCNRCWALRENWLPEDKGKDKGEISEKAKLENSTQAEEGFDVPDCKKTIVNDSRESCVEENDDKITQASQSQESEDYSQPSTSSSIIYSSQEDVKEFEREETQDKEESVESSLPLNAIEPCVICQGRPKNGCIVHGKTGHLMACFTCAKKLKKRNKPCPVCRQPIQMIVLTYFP

CCCCn1c(=O)[nH]c(O)c(C2NCCc3c2[nH]c2ccccc32)c1=O (centres unmarked) [MEL23]
Mdm2 ligase activity (full-length Mdm2 in vitro ubiquitination) [1]: little to no inhibitory effect
Mdm2 level in MEFs [2]: increased Mdm2 in MEFs
survival of p53−/− MEFs ([3]; dilution series): also decreased
survival of wild-type MEFs ([3]; dilution series): survival of the wild-type cells decreased the greatest
survival of p53−/− mdm2−/− MEFs ([3]; highest concentration tested): Only a small decrease in cell survival
RKO cell survival [4]: decreased in a dose-dependent manner
RKO-E6 cell survival [4]: remained largely unaffected
ubiquitination of the Mdm2 RING-MdmX RING hetero-complex [5]: inhibited
